How the values were obtained:
[1] = system: dry eye syndrome model New Zealand rabbits; test: Dry eye syndrome experiment (benzalkonium chloride model): corneal fluorescein sodium staining; assay type: in vivo, male New Zealand White rabbits; settings: compared with the model group
[2] = Pharmacokinetic (PK) experiment in rats; assay type: in vivo, male SD rats; settings: same experimental conditions
Method in brief: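 Male SD rats dosed by body weight, oral group fasted overnight until 4 h post-dose. Jugular blood sampled 2 min–24 h into heparin; plasma analysed and PK parameters derived from concentration–time data.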

uveitis model rats = test: Anti-uveitis pharmacodynamic experiment (LPS model): ocular pathological score; assay type: in vivo, male SD rats; settings: compared with the model group
Method: Pharmacodynamic Experiment on Anti-Uveitis
Positive control drug: Fluorometholone Eye Drops (specification: 5 mL/5 mg; Santen Pharmaceutical (CHINA) Co., Ltd.; Lot No. : J20180068) was used as the positive control drug and stored at room temperature protected from light until use.
Fifty male SD rats underwent a one-week adaptive feeding period. […] Groups 2 to 5 were used to establish rat uveitis models by single subcutaneous injection of 1 mg/kg LPS (Salmonella; Sigma; Lot No. 0000164114) into the plantar tissue of the hindpaw. Salmonella endotoxin was dissolved in normal saline to prepare an injection solution at a concentration of 2 mg/mL, which was injected subcutaneously at 1 mg/kg into the plantar tissue of one paw of the rats. Group 1 was injected with an equal volume of normal saline.
At the end of the experiment, photos of the rats' eyes were taken using a slit-lamp microscope, and the differences in ocular lesions of rats among groups were compared and analyzed.
Statistical analysis was performed using SPSS software. Measurement data were expressed as mean ± standard deviation. One-way ANOVA was used for intergroup comparisons. For data with homogeneous variance, LSD test was used; for data with heterogeneous variance, Dunnett-t test was used. A value of P < 0.05 was considered statistically significant.

[3] = system: dry eye syndrome model New Zealand rabbits; test: Dry eye syndrome experiment (benzalkonium chloride model): tear film break-up time; assay type: in vivo, male New Zealand White rabbits; settings: compared with the model group
Method: Positive control drug: Fluorometholone Eye Drops (specification: 5 mL/5 mg; Santen Pharmaceutical (CHINA) Co., Ltd.; Lot No.: 1FM6625) was used as the positive control drug and stored at room temperature protected from light until use.
Thirty male New Zealand White rabbits (conventional grade) were prepared. Six rabbits were randomly selected as the blank control group, and the remaining animals were administered 0.1% benzalkonium chloride to the left eye twice daily (morning and evening) , 10 µL/animal each time. On day 6 of modeling, tear secretion was measured using phenol red cotton threads to determine whether the model was successfully established. […] During the administration, all animals except the blank control group were administered 10 µL of 0.1% benzalkonium chloride to the left eye once daily to maintain dry eye symptoms..
• Test time: D3, D7, D15; • Test animals: All animals were tested before grouping; all enrolled surviving animals were tested after administration; • Test method: 1% Fluorescein sodium was dropped onto the inner side of the rabbit's lower eyelid, 10 µL/animal. The rabbit's eyes were closed and gently massaged to evenly distribute the fluorescein sodium on the eye surface. The rabbit's eyes were then sequentially placed under a slit lamp. The tear film break-up time was observed and recorded as the time from eye opening to the appearance of the first dark spot. If no dark spot appeared, the time was calculated as 60 seconds.
The normality and homogeneity of variance were tested by Levene's test. If there was no statistical significance (P > 0.05), one-way analysis of variance (ANOVA) was used for statistical analysis. If ANOVA was statistically significant (P ≤ 0.05), LSD test (parametric method) was used for comparative analysis. If the variance was heterogeneous (P ≤ 0.05), Kruskal-Wallis test was used. If the Kruskal-Wallis test was statistically significant (P ≤ 0.05), Dunnett's test (nonparametric method) was used for comparative analysis.

[4] = system: inflammatory bowel disease model rats; test: Inflammatory bowel disease experiment (TNBS model): macroscopic injury score of the colon; assay type: in vivo; settings: compared with the model group
Method in brief: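 Colitis in rats was induced by intrarectal TNBS 50 mg/kg (20 mg/mL in 50% ethanol) after 24 h fasting. Dosing began 1 h before induction, then daily for 5 days. On day 5 colon was scored macroscopically for adhesion, obstruction, wall thickening, congestion and necrosis, with ANOVA/Dunnett or Kruskal-Wallis/Mann-Whitney statistics.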

[5] = system: inflammatory cytokines IL-6 and IL-12; test: Anti-asthma pharmacodynamic experiment: inflammatory cytokines in bronchoalveolar lavage fluid (ELISA); assay type: in vivo, female BALB/c mice; settings: compared with the model group
IL-17 = test: Psoriasis experiment (imiquimod model): inflammatory cytokine in serum (ELISA); assay type: in vivo, mice; settings: compared with the model group
Method: Positive control drug: Fluticasone Propionate Cream (specification: 0.05% × 15 g, Zhejiang Xianju Pharmaceutical Co. Ltd., Lot No. 211106), stored at room temperature protected from light until use.
Adult mice were selected, and the skin of 2 cm × 3 cm on the back of mice was locally depilated. The mice in the model group and drug administration group were applied with 62.5 mg of 5% imiquimod cream on their back for modeling, while the mice in the blank control group were applied with medical petroleum jelly on their back daily. The above procedures were performed once a day for 7 consecutive days.
The mice in the drug administration group were applied with the corresponding drugs on their backs daily at a dose of 0.2 g per mouse, while the blank control group and the model group were only applied with 0.2 g of the test sample drug matrix. One hour after drug administration, the drugs were wiped off with sterile cotton swabs, followed by the application of imiquimod. The above procedures were performed once a day for 7 consecutive days.
After the PASI scoring on day 8 of modeling, blood was collected from the orbital sinus of mice and centrifuged at 3000 rpm for 10 min. The supernatant was extracted to measure the level of IL-17. All procedures were performed following the instructions of the ELISA kit.
Statistical analysis was performed using SPSS software, and the results were expressed as mean ± standard deviation. One-way ANOVA was used for intergroup comparisons. For data with homogeneous variance, the LSD test was used; for data with heterogeneous variance, the Dunnett-t test was used. A value of P < 0.05 was considered statistically significant.

[6] = molecular target: T1, glucocorticoid receptor (GR) (Homo sapiens, UniProt P04150); test: Assay for agonist activity on glucocorticoid receptor (luciferase reporter, HEK293 cells transfected with pBIND-GR plasmid); assay type: cell-based; settings: GR agonist EC50 (nM), HEK293 cells transfected with pBIND-GR, luciferase signal
T1 sequence (P04150 521-777): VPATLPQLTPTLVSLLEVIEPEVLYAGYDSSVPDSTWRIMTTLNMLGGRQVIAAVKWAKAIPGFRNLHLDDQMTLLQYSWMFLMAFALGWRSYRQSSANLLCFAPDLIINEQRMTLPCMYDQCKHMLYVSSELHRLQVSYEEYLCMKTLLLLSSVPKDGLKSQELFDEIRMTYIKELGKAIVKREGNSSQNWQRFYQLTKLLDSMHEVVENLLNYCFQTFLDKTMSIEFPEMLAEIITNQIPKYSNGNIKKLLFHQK
Method in brief: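 HEK293 cells transfected with pBIND-GR, seeded in phenol red-free DMEM with 5% charcoal-stripped serum, then exposed to compounds in a 10-point, 4-fold dilution series from 10 µM, in duplicate. Luciferase luminescence read after incubation; EC50 from nonlinear fit. Vehicle blank: 0.1% DMSO.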

C[C@]12C=CC(=O)C=C1CC[C@H]1[C@@H]3C[C@H]4OC(c5ccc(CSC6CCOC6=O)nc5)O[C@@]4(C(=O)CO)[C@@]3(C)C[C@H](O)[C@@]12Cl (stereo partly drawn) [Compound 48, (6aS,6bR,7S,8aS,8bS,11aR,12aS,12bS)-6b-Chloro-7-hydroxy-8b-(2-hydroxyacetyl)-6a,8a-dimethyl-10-(6-(((2-oxotetrahydrofuran-3-yl)thio)methyl)pyridin-3-yl)-1,2,6a,6b,7,8,8a,8b,11a,12,12a,12 b-dodecahydro-4H-naphtho[2',1':4,5]indeno[1,2-d][1,3]dioxol-4-one]
inflammatory response on the ocular surface / ocular symptoms [1]: significantly alleviated the ocular symptoms in dry eye syndrome model New Zealand rabbits
pharmacokinetic properties (plasma clearance rate, systemic exposure) [2]: pharmacokinetic properties similar to those of compound 8
ocular abnormalities / ocular pathological score (uveitis model rats): significantly improved ocular abnormalities
tear film break-up time [3]: significantly increased the tear film break-up time
inflammatory response on the intestinal surface / intestinal symptoms [4]: significantly alleviated the intestinal symptoms in inflammatory bowel disease model rats
Effects on inflammatory cytokines in bronchoalveolar lavage fluid of mice [5]: pharmacological effects similar to those of compound 23
level of IL-17 / inflammatory cytokines in psoriasis model mice (IL-17): significantly inhibited inflammatory cytokines in the skin of psoriasis model mice
EC50 [6]: 0.37 nM

C[C@]12C=CC(=O)C=C1CC[C@H]1[C@@H]3C[C@H]4OC(c5ccc(CSC6CCOC6=O)cn5)O[C@@]4(C(=O)CO)[C@@]3(C)C[C@H](O)[C@@]12Cl (stereo partly drawn) [Compound 51, (6aS,6bR,7S,8aS,8bS,11aR,12aS,12bS)-6b-Chloro-7-hydroxy-8b-(2-hydroxyacetyl)-6a,8a-dimethyl-10-(5-(((2-oxotetrahydrofuran-3-yl)thio)methyl)pyridin-2-yl)-1,2,6a,6b,7,8,8a,8b,11a,12,12a,12 b-dodecahydro-4H-naphtho[2',1':4,5]indeno[1,2-d][1,3]dioxol-4-one]
inflammatory response on the ocular surface / ocular symptoms [1]: significantly alleviated the ocular symptoms in dry eye syndrome model New Zealand rabbits
pharmacokinetic properties (plasma clearance rate, systemic exposure) [2]: pharmacokinetic properties similar to those of compound 8
ocular abnormalities / ocular pathological score (uveitis model rats): significantly improved ocular abnormalities
tear film break-up time [3]: significantly increased the tear film break-up time
inflammatory response on the intestinal surface / intestinal symptoms [4]: significantly alleviated the intestinal symptoms in inflammatory bowel disease model rats
Effects on inflammatory cytokines in bronchoalveolar lavage fluid of mice [5]: pharmacological effects similar to those of compound 23
level of IL-17 / inflammatory cytokines in psoriasis model mice (IL-17): significantly inhibited inflammatory cytokines in the skin of psoriasis model mice
EC50 [6]: 0.82 nM

From EP4635969A1, “NOVEL GLUCOCORTICOID, METHOD FOR PREPARING SAME, AND USE THEREOF” (Tianjin Pharmaceutical Biotechnology Co., Ltd., priority 2022, dated 2024)
